Patent US12532888B2, “Methods and uses of a mixture comprising alpha-cypermethrin and dinotefuran for combating or controlling mosquitoes” (priority 2020, dated 2026)

Test system: yellow fever mosquitoes (Aedes aegypti)
Experiment: whole plant or invertebrate
Settings: for Colby Expected: 3 days after exposure
Experimental: Glass vials (20 mL scintillation) were treated with 445 μL of varying concentrations of α-cypermethrin dissolved in acetone, respectively dinotefuran or mixtures of α-cypermethrin and dinotefuran in the indicated ratios. Vials were turned on their sides and placed on an automated roller table. The vials were rolled (6 rpm) uncapped to allow an even coating of the treatment.
After rolling, vials were allowed to completely dry for at least an hour. Each treatment was replicated five times. Prior to exposure, yellow fever mosquitoes (Aedes aegypti) were incapacitated using a chill table. Approximately six mosquitoes were placed into each vial and were exposed to treatments at room temperature for exactly one hour. A small amount of CO2 was used to incapacitate the mosquitoes to facilitate removal from treatment. Insects were then transferred to 16 oz plastic holding containers. A cotton wick moistened with 10% sugar water was provided in each container. Holding containers were moved into an incubator with environmental conditions of 27° C. and 80% relative humidity. Wicks were rehydrated daily and mortality was assessed at 3 days after exposure (DAE).
Ataxia+mortality data were used to determine whether there was a synergistic effect in the combined use of dinotefuran and α-cypermethrin.
Abbott's correction for control mortality and the Colby method for testing synergy were used to analyze combination data. […] Colby's expected mortality per combination observation=% mortality (A)+% mortality (B)−(% mortality (A)×% mortality (B))/100. Synergy ratio=% observed mortality/% Colby expected mortality.
Additive interactions have synergy ratios equal to 1, antagonistic interactions have synergy ratios of less than 1, and synergistic interactions have synergy ratios of greater than 1.

Row | Structure (SMILES) | mortality at 0.00732 mg/m2 (Aedes aegypti, 72 h) [%] | Colby Expected (Table 1, expected mortality of the combination 0.00732 + 0.0732 mg/m^2 by Colby's formula) [%] | Colby Expected (Table 2, expected mortality of the combination 0.00732 + 7.32 mg/m^2 by Colby's formula) [%] | mortality at 0.0732 mg/m2 (Aedes aegypti, 72 h) [%] | mortality at 7.32 mg/m2 (Aedes aegypti, 72 h) [%]
1 | CC1(C)C(C=C(Cl)Cl)C1C(=O)OC(C#N)c1cccc(Oc2ccccc2)c1 (racemic) [Alpha-cypermethrin, racemate comprising (R)-α-cyano-3-phenoxybenzyl (1S, 3S)-3-(2,2-dichlorovinyl)-2,2-dimethylcyclopropanecarboxylate; (S)-α-cyano-3-phenoxybenzyl (1R, 3R)-3-(2,2-dichlorovinyl)-2,2-dimethylcyclopropanecarboxylate] | 13.9 | 13.9 | 13.9 | – | –
2 | CNC(=N[N+](=O)[O-])NCC1CCOC1 (racemic) [Dinotefuran, (RS)-1-methyl-2-nitro-3-(tetrahydro-3-furylmethyl) guanidine] | – | – | – | 0 | 0
